Laboratory results as given in the supplement of paper PMC10307832.

Assays:
Assay in all cases: relative viability (nuclei count vs DMSO), 5 days (fraction); higher = more cells survive
Bleomycin + Tozasertib = compound: CC1=C(N=C(N=C1N)[C@H](CC(=O)N)NC[C@@H](C(=O)N)N)C(=O)N[C@@H]([C@H](C2=CN=CN2)OC3C(C(C(C(O3)CO)O)O)OC4C(C(C(C(O4)CO)O)OC(=O)N)O)C(=O)N[C@H](C)[C@H]([C@H](C)C(=O)N[C@@H]([C@@H](C)O)C(=O)NCCC5=NC(=CS5)C6=NC(=CS6)C(=O)NCCC[S+](C)C)O [Bleomycin] + Cc1cc(Nc2cc(N3CCN(C)CC3)nc(Sc3ccc(NC(=O)C4CC4)cc3)n2)n[nH]1 [Tozasertib] (partner 0.1 µM); settings: main component drawn
Procedure, shortened: (§1)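 Five library-drug doses in √10 steps were combined with a fixed anchor-drug dose, or a single drug was given alone, by pin tool to lung cancer cell lines in 1536-well plates the day after seeding. Nuclei were stained and counted after 5 days. Relative viability is the nuclei count in treated wells over that in vehicle wells, taken as the median of duplicate plates.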

Etoposide + OSI-027 = compound: COc1cc([C@@H]2c3cc4c(cc3[C@@H](O[C@@H]3O[C@@H]5CO[C@@H](C)O[C@H]5[C@H](O)[C@H]3O)[C@H]3COC(=O)[C@H]23)OCO4)cc(OC)c1O [Etoposide] + COc1cccc2cc(-c3nc([C@H]4CC[C@H](C(=O)O)CC4)n4ncnc(N)c34)[nH]c12 [OSI-027] (partner 0.5 µM)
Procedure, shortened: as §1

Etoposide + Dasatinib = compound: COc1cc([C@@H]2c3cc4c(cc3[C@@H](O[C@@H]3O[C@@H]5CO[C@@H](C)O[C@H]5[C@H](O)[C@H]3O)[C@H]3COC(=O)[C@H]23)OCO4)cc(OC)c1O [Etoposide] + Cc1nc(Nc2ncc(C(=O)Nc3c(C)cccc3Cl)s2)cc(N2CCN(CCO)CC2)n1 [Dasatinib] (partner 0.075 µM)
Procedure, shortened: as §1

Etoposide + Pemetrexed = compound: COc1cc([C@@H]2c3cc4c(cc3[C@@H](O[C@@H]3O[C@@H]5CO[C@@H](C)O[C@H]5[C@H](O)[C@H]3O)[C@H]3COC(=O)[C@H]23)OCO4)cc(OC)c1O [Etoposide] + Nc1nc2[nH]cc(CCc3ccc(C(=O)N[C@@H](CCC(=O)O)C(=O)O)cc3)c2c(=O)[nH]1 [Pemetrexed] (partner 0.2 µM)
Procedure, shortened: as §1

UMC-11
relative viability (Bleomycin + Tozasertib; first compound 0.01 µM): 0.185 | relative viability (Bleomycin + Tozasertib; first compound 0.03162 µM): 0.196 | relative viability (Bleomycin + Tozasertib; first compound 0.1 µM): 0.208 | relative viability (Bleomycin + Tozasertib; first compound 0.3162 µM): 0.203 | relative viability (Bleomycin + Tozasertib; first compound 1 µM): 0.18 | relative viability (Etoposide + OSI-027; first compound 0.01 µM): 0.443 | relative viability (Etoposide + OSI-027; first compound 0.03162 µM): 0.544 | relative viability (Etoposide + OSI-027; first compound 0.1 µM): 0.299 | relative viability (Etoposide + OSI-027; first compound 0.3162 µM): 0.431 | relative viability (Etoposide + OSI-027; first compound 1 µM): 0.3 | relative viability (Etoposide + Dasatinib; first compound 0.01 µM): 0.455 | relative viability (Etoposide + Dasatinib; first compound 0.03162 µM): 0.38 | relative viability (Etoposide + Dasatinib; first compound 0.1 µM): 0.316 | relative viability (Etoposide + Dasatinib; first compound 0.3162 µM): 0.38 | relative viability (Etoposide + Dasatinib; first compound 1 µM): 0.259 | relative viability (Etoposide + Pemetrexed; first compound 0.01 µM): 0.809 | relative viability (Etoposide + Pemetrexed; first compound 0.03162 µM): 0.789 | relative viability (Etoposide + Pemetrexed; first compound 0.1 µM): 0.768 | relative viability (Etoposide + Pemetrexed; first compound 0.3162 µM): 0.53 | relative viability (Etoposide + Pemetrexed; first compound 1 µM): 0.313
